The text below walks through data of article PMC3264577, “RINL, Guanine Nucleotide Exchange Factor Rab5-Subfamily, Is Involved in the EphA8-Degradation Pathway with Odin” (PLoS ONE, 2012).

Data set [1] concerns the target T1, Rab3a (Homo sapiens, UniProt P20336).
T1 construct: myc-tagged, expressed in HEK293T, immunoprecipitated
T1 sequence (P20336 1-220): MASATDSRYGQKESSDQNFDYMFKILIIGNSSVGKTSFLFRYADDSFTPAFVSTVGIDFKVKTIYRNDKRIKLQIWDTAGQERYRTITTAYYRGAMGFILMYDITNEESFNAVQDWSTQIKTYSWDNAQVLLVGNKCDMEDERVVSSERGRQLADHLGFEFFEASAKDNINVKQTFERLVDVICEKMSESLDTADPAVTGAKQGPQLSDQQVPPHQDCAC
The data set is described as follows: […] metabolic labelling, anti-myc immunoprecipitation, TLC of bound nucleotides. The following applies: HEK293T cells, mock or RINL co-expression, labelled compound. In kind it is cell-based.

Data set [2] has as its target T2, Rab31 (Homo sapiens, UniProt Q13636).
T2 sequence (Q13636 1-195): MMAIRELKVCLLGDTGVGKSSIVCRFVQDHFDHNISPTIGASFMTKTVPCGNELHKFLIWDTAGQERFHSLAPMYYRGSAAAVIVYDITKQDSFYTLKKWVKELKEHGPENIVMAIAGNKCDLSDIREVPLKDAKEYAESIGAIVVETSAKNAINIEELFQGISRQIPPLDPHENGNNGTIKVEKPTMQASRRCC
The data set is described as above. Also noted: myc-tagged in HEK293T (cell assay). In kind it is cell-based. The following applies: HEK293T cells, 4 h 32Pi; mock or GEF co-expression; labelled compound.

Data set [3] concerns the target T3, Rab11a (Homo sapiens, UniProt P62491).
T3 construct: myc-tagged, expressed in HEK293T, immunoprecipitated
T3 sequence (P62491 2-213): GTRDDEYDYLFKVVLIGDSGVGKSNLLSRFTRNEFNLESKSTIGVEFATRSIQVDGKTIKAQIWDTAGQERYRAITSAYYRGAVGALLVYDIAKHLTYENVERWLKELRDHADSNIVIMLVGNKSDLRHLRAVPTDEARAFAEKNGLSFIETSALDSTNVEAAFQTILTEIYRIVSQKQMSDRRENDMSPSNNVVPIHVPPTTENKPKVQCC
Described as above. In kind it is cell-based. The following applies: HEK293T cells, mock or RINL co-expression, labelled compound.

Data set [4] addresses T4, Rab22 (Homo sapiens, UniProt Q9UL26).
T4 sequence (Q9UL26 1-194): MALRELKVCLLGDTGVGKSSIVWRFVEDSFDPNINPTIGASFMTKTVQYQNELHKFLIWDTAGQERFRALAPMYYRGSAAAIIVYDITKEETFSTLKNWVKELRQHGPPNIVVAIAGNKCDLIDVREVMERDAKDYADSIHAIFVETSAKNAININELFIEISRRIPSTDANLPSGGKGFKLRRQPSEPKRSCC
Described as above. In kind it is cell-based. Also noted: gene RAB22A; myc-tagged in HEK293T (cell assay). The following applies: HEK293T cells, 4 h 32Pi; mock or GEF co-expression; labelled compound.

In data set [5] the target is T5, Rab7a (Homo sapiens, UniProt P51149).
T5 construct: myc-tagged, expressed in HEK293T, immunoprecipitated
Described as above. In kind it is cell-based. The following applies: HEK293T cells, mock or RINL co-expression, labelled compound.

The target of data set [6] is T6, Rab21 (Homo sapiens, UniProt Q9UL25).
T6 sequence (Q9UL25 1-225 limits assumed): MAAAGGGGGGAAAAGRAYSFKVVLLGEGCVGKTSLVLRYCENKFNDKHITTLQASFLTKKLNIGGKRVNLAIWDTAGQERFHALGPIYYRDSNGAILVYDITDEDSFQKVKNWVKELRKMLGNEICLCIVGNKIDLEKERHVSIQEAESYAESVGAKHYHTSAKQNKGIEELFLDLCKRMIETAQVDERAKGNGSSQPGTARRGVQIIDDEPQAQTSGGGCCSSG
Described as above. In kind it is cell-based. Details: myc-tagged in HEK293T (cell assay). The note with it: HEK293T cells, 4 h 32Pi; mock or GEF co-expression; labelled compound.

Data set [7] has as its target T7, Rab5b (Homo sapiens, UniProt P61020).
T7 construct: GST fusion from E. coli (in vitro); myc-tagged in HEK293T (cell assay)
T7 sequence (P61020 1-215): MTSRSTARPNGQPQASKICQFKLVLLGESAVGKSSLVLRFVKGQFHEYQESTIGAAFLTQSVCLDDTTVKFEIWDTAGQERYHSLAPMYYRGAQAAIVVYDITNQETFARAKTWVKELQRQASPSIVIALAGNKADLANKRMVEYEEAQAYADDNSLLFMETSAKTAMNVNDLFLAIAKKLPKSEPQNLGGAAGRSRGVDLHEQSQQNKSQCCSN
The data set is described as above. In kind it is cell-based. The note with it: HEK293T cells, 4 h 32Pi; mock or GEF co-expression; labelled compound.

Data set [8] has as its target T4, Rab22. Kind of data set: […]GTPgammaS filter binding time course. Details: gene RAB22A; GST fusion from E. coli (in vitro); myc-tagged in HEK293T (cell assay). The following applies: 1 µM [35S]GTPgammaS, 30 °C; with or without FLAG-RINL or Rabex-5; labelled compound. On the technique in general: Binding of GTPγS marks nucleotide exchange on a G protein.
Data set [9] has as its target T6, Rab21. The data set is described as follows: […]GTPgammaS filter binding time course. Details: GST fusion from E. coli (in vitro); myc-tagged in HEK293T (cell assay). The following applies: 1 µM [35S]GTPgammaS, 30 °C; with or without FLAG-RINL or Rabex-5; labelled compound.
The target in data set [10] is T2, Rab31. The data set is described as follows: […]GTPgammaS filter binding time course. Details: GST fusion from E. coli (in vitro); myc-tagged in HEK293T (cell assay). The note with it: 1 µM [35S]GTPgammaS, 30 °C; with or without FLAG-RINL or Rabex-5; labelled compound.
Data set [11] deals with the molecule itself. The data set is described as follows: not stated; data not shown; tetramers composed of anti-parallel linkages of two parallel dimers.

By stoichiometry N is commonly meant a count of units in the complex or per binding partner.

T5 sequence (P51149 2-207): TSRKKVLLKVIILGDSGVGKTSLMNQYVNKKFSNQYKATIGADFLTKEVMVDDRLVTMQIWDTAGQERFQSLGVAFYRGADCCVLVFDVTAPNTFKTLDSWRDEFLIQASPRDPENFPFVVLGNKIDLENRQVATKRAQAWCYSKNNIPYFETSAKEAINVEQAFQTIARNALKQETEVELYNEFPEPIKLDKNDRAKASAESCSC

For `Nc1nc2c(ncn2[C@@H]2O[C@H](COP(=O)(O)OP(=O)(O)O)[C@@H](O)[C@H]2O)c(=O)[nH]1` [GDP], the “32Pi metabolic labelling, anti-myc immunoprecipitation, TLC of bound nucleotides” value (shortened to “32Pi metabolic labelling … of bound nucleotides”) in [1] was “The radioactivity of GTP and GDP was quantified”; in data set [2] it was “The radioactivity of GTP and GDP was quantified”; in data set [3], “The radioactivity of GTP and GDP was quantified”; in [4] it was “The radioactivity of GTP and GDP was quantified”; in data set [5], “The radioactivity of GTP and GDP was quantified”; in [6], “The radioactivity of GTP and GDP was quantified”. Further, the “32Pi metabolic labelling … of bound nucleotides” value in [7] was “The radioactivity of GTP and GDP was quantified”.

In the case of `Nc1nc2c(ncn2[C@@H]2O[C@H](COP(=O)(O)OP(=O)(O)OP(=O)(O)O)[C@@H](O)[C@H]2O)c(=O)[nH]1` [GTP], the “32Pi metabolic labelling … of bound nucleotides” value in data set [1] was “The percentages (%) of each GTP-bound Rab member in the metabolically radiolabeled cells are shown”; in data set [2], “RINL significantly increased GTP-Rab21, GTP-Rab22, and GTP-Rab31 formation”; in data set [4] it was “RINL significantly increased GTP-Rab21, GTP-Rab22, and GTP-Rab31 formation”; in [6], “RINL significantly increased GTP-Rab21, GTP-Rab22, and GTP-Rab31 formation”; in [7] it was “Rab5b was present in a GTP-bound form in mock-transfected cells”.

Consider `Nc1nc2c(ncn2[C@@H]2O[C@H](COP(=O)(O)OP(=O)(O)OP(O)(O)=S)[C@@H](O)[C@H]2O)c(=O)[nH]1` [GTPgammaS], for which the “[35S]GTPgammaS filter binding time course” value in [8] was “RINL accelerated GTPgammaS binding to Rab22 and Rab31”; in data set [9], “Rabex-5 strongly, as opposed to RINL, accelerated GTPgammaS binding to Rab21”; in [10], “RINL accelerated GTPgammaS binding to Rab22 and Rab31”.

B1: FLAG-RIN3 (natural protein, UniProt Q8TB24 1-985, looked up)
chain: MIRHAGAPARGDPTGPVPVVGKGEEEEEEDGMRLCLPANPKNCLPHRRGISILEKLIKTCPVWLQLSLGQAEVARILHRVVAGMFLVRRDSSSKQLVLCVHFPSLNESSAEVLEYTIKEEKSILYLEGSALVFEDIFRLIAFYCVSRDLLPFTLRLPQAILEASSFTDLETIANLGLGFWDSSLNPPQERGKPAEPPRDRAPGFPLVSSLRPTAHDANCACEIELSVGNDRLWFVNPIFIEDCSSALPTDQPPLGNCPARPLPPTSDATSPTSRWAPRRPPPPPPVLPLQPCSPAQPPVLPALAPAPACPLPTSPPVPAPHVTPHAPGPPDHPNQPPMMTCERLPCPTAGLGPLREEAMKPGAASSPLQQVPAPPLPAKKNLPTAPPRRRVSERVSLEDQSPGMAAEGDQLSLPPQGTSDGPEDTPRESTEQGQDTEVKASDPHSMPELPRTAKQPPVPPPRKKRISRQLASTLPAPLENAELCTQAMALETPTPGPPREGQSPASQAGTQHPPAQATAHSQSSPEFKGSLASLSDSLGVSVMATDQDSYSTSSTEEELEQFSSPSVKKKPSMILGKARHRLSFASFSSMFHAFLSNNRKLYKKVVELAQDKGSYFGSLVQDYKVYSLEMMARQTSSTEMLQEIRTMMTQLKSYLLQSTELKALVDPALHSEEELEAIVESALYKCVLKPLKEAINSCLHQIHSKDGSLQQLKENQLVILATTTTDLGVTTSVPEVPMMEKILQKFTSMHKAYSPEKKISILLKTCKLIYDSMALGNPGKPYGADDFLPVLMYVLARSNLTEMLLNVEYMMELMDPALQLGEGSYYLTTTYGALEHIKSYDKITVTRQLSVEVQDSIHRWERRRTLNKARASRSSVQDFICVSYLEPEQQARTLASRADTQAQALCAQCAEKFAVERPQAHRLFVLVDGRCFQLADDALPHCIKGYLLRSEPKRDFHFVYRPLDGGGGGGGGSPPCLVVREPNFL
notes: this molecule is used for it; source: HEK293T, transfected, in lysate
As for B1, the “stoichiometry N” value in data set [11] amounted to 4.
